Source: BindingDB's records for PubMed 37336067 (State University of Paraiba)

molecular target: Glycylpeptide N-tetradecanoyltransferase 1 (Homo sapiens) (UniProt P30419); test: Inhibition of recombinant N-terminal his-6 tagged human NMT expressed in Escherichia coli BL21 (DE3)pLysS using peptide substrate preincubated for 5 mins followed by substrate addition and measured after 30 mins by scintillation proximity assay
Sequence (P30419 whole entry, looked up): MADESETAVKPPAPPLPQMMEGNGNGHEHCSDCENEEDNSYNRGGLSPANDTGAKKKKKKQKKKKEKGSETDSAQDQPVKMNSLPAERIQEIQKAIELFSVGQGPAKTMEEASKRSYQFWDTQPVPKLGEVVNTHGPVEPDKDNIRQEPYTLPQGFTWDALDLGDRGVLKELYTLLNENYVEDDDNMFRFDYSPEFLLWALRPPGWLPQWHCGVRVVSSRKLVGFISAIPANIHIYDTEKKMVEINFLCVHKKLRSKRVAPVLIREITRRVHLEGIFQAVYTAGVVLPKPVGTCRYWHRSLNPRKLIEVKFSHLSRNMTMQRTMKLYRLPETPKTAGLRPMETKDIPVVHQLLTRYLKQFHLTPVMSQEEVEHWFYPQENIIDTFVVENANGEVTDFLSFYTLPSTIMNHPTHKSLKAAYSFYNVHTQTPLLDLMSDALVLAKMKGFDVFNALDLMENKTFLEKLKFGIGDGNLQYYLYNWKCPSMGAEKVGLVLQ

Row | IC50 | Structure (SMILES)
1 | 286 µM | O=C(Nc1nc2ccccc2s1)[C@H]1CC[C@@H](NCc2ccc3ccccc3c2)CC1
2 | 656 µM | O=C(Nc1nc2cc(F)ccc2s1)[C@H]1CC[C@@H](NCc2ccc3ccccc3c2)CC1
3 | 656 µM | CN(C)C(=O)c1ccc2nc(NC(=O)[C@@H]3CCC[C@H](NCc4ccc5ccoc5c4)C3)sc2c1
